Data reported in US11207343B2, “Compositions and therapeutic methods” (AyuVis Research LLC, priority 2016, dated 2021).

Assays:
[1] = tested on: LPS induced cytokines (TNF-α, IL-1β and IL-6) in human monocytes; experiment: Inhibition of LPS induced inflammatory mediators in human monocytes; type: cell-based; conditions: for inhibiting LPS induced inflammation biomarkers (TNF-α, IL-1β and IL-6) in human monocytes: concentration not given; for inhibition of LPS induced TNF-α production: 100 μM
Procedure: To understand the structural requirement and limitations to probe the TLR4 binding pocket for optimal potency and efficacy, we have studied the ability of chitooligomers to inhibit LPS induced inflammation in human monocytes (FIG-8 A-B). Compounds 1-4 inhibited LPS induced cytokines TNF-α, IL-1β and IL-6) in a statistically significant manner at 10 μM concentration. […] The protocol was followed as described [Panda etal, PLoS Pathog 2012, 8, e1002717]. Human monocytes were stimulated with LPS along with the series of compounds (10 μM) for 48 h. TNF-α, IL-1β, I1-6 in culture supernatants were quantified according to the manufacturer's instruction. Similarly, other analogs were assessed for their ability to inhibit LPS induced TNF-α production in human monocytes.

[2] = tested on: gram negative (E. Coli, P. Aeruginosa, A, Baumannii, K. Pneumonia), gram positive (MRSA), fungus (C. Albicans); experiment: MIC broth microdilution antimicrobial screen; type: cell-based
Excerpt: The compounds were screened against selected gram negative (E. Coli, P. Aeruginosa, A, Baumannii, K. Pneumonia), gram positive (MRSA) as well as fungus (C. Albicans) mostly found in burn and septic wounds. […] All prepared compounds have been evaluated in a Minimum Inhibitory Concentrations (MIC) assay with both test and control articles in accordance with guidelines of the Clinical Laboratory Standards Institute (CLSI) for broth microdilution susceptibility testing. Briefly, test and control compounds have been dissolved in DMSO, diluted to proper concentrations and added to 96-well microdilution trays. Brain Heart Infusion Broth (BHI) was used for studies with bacterial strains such as S. aureus, E. coli, P. Aeruginosa, K pneumoniae, A. baumannii and Candida albicans. Compounds were diluted serially from 200 μg/ml to 0.0625 μg/ml and plated in 96 well plates, and inoculated with approximately 1×10^5 CFU of each organism.

MRSA and MSSA strains = experiment: Activity against MRSA and MSSA strains compared to colistin; type: cell-based, S. aureus; conditions: colistin as positive control
Excerpt: (§1) Further we studied their biofilm inhibition and eradication activities against biofilm cells as described previously [Ceri et al, Journal of Clinical Microbiology 1999, 37, 1771-1776]. […] Thus, these compounds with activities against S. aureus biofilms will have significant impact on controlling recalcitrant biofilm-mediated endovascular infections [Li et al, J Infect Dis. 2016 Nov. 1;214(9):1421-1429; Archer et al, Virulence 2011, 2, 445-459]. Briefly, we used Calgary Biofilm Device (CBD) technology for the biofilm susceptibilities to compounds. The CBD produces 96 equivalent biofilms for the assay of antibiotic susceptibilities by the standard 96-well technology. Susceptibility to a standard group of compounds and antibiotics was determined for National Committee for Clinical Laboratory Standards (NCCLS) as described previously.

[3] = tested on: S. aureus biofilms (MRSA, MSSA); experiment: Biofilm inhibition and eradication, Calgary Biofilm Device; type: cell-based
Excerpt: as §1

[4] = tested on: LPS induced TNF-α in mouse bone marrow derived macrophages; experiment: Inflammatory mediator (TNF-α) in mouse bone marrow derived macrophages; type: cell-based; conditions: for inhibition of LPS induced production of TNF-α: 100 μM, 8 hours, mouse bone marrow derived macrophages; for inhibiting LPS and HMGB1 induced inflammation biomarkers (TNF-α, IL-1β and IL-6): bone derived mouse macrophages
Procedure: Bone marrow derived mouse macrophages were treated with 100 μM of the above test compounds for 8 hours. Pro-inflammatory cytokines such as TNF-α protein level was measured by […]. LPS treatment (10 ng/ml) was used as positive control (FIG. 9).

[5] = tested on: HMGB1 induced VEGF production in ARPE-19 cells; experiment: HMGB1 induced VEGF production in ARPE-19 cells (ELISA); type: cell-based, human; conditions: 50 μg/mL, 100 ng/mL HMGB1, 24 h, p<0.01
Excerpt: Central to photoreceptor survival and function, the RPE is the major source of the angiogenic factor VEGF and therefore plays a central role in the modulation and progression of choroidal neovascularization [Spilsbury et al, The American Journal of Pathology 2000, 157, 135-144; Betts et al, ISRN Ophthalmology 2011, 2011, 184295] leading to AMD. As part of our preliminary result to evaluate if compounds 1 and 2 can inhibit the HMGB1 (an endogenous ligand for TLR4) induced VEGF production in ARPE-19 cells. […] 2×10^5 ARPE-19 cells were seeded in 24 well plate for 24 h in full medium containing 10% serum following which they were maintained for additional 24 h with serum free medium. Cells were treated with 0 μg/mL (medium) or 100 ng/mL of HMGB1 along with or without of 50 μg/mL of test compounds for 24 h. Supernatant was collected and assayed using human VEGF ELISA kit from Peprotech according to manufacturer's instructions. RPE cells are located adjacent to choroidal capillaries and other major ocular vasculatures.

[6] = tested on: laser-induced choroidal neovascularization; experiment: Laser-induced CNV mouse model for wet AMD; type: in vivo, C57BL/6 mice
Excerpt: The parameters used to reproducibly obtain successful laser spots (as confirmed by a gas bubble formation indicating rupture of Bruch membrane) were: 350 mW, 75 msec, and 50 μm spot size. Four laser spots were applied; 2-3 disc diameters from the optic nerve. […] By the end of the experiment, mouse eyes were examined by fundus fluorescein angiography and/or optical coherence tomography (OCT) to visualize the CNV lesions. Afterwards animals were sacrificed and RPE/choroid/sclera flat mounts were prepared and stained with both FITC-conjugated isolectin B4 and anti-ICAM-2 antibody to quantitatively measure the size of CNV. We have performed two experiments to test the effects of 1, 2, 26 on laser-induced CNV.

E. coli (ATCC-25922) = experiment: Lethal gram negative E. coli sepsis mouse model; type: in vivo; conditions: 250 μg/animal with 2×10^5 CFU E. coli intraperitoneally, BALB/c mice
Procedure: In an in vivo mice model, chitohexaose (Compound 1) protected mouse from lethal gram negative sepsis against E. coli. Previously reported bacterial sepsis model [Roger etal, Proc Natl Acad Sci USA. 2009 Feb 17;106(7):2348-52] was recruited to study the efficacy of Compound 1 (FIG-1). Intraperitoneally 2×10^5 CFU of E. coli (ATCC-25922) was injected into BALB/c mice with and without Compound 1 (250 μg/animal). E. coli mediated sepsis induced mortality whereas simultaneous treatment of mice with Compound 1 protected (40%) from sepsis induced death. The above result explained that bacteria induced sepsis and mortality is inhibited and delayed for a certain period of time which may provide a window for therapy.

Row | Molecule | inhibiting LPS induced inflammation biomarkers (TNF-α, IL-1β and IL-6) in human monocytes [1] | inhibition of LPS induced TNF-α production ([1]; human monocytes) | activity against MRSA and MSSA strains compared to colistin (MRSA and MSSA strains) | inhibition of LPS induced production of TNF-α [4] | inhibiting LPS and HMGB1 induced inflammation biomarkers (TNF-α, IL-1β and IL-6) [4] | HMGB1 induced VEGF production [5] | other results
1 | CC1(C)CC(C(=O)NC2C(OC3C(CO)OC(O)C(N)C3O)OC(CO)C(OC3OC(CO)C(O)C(O)C3N)C2O)CC(C)(C)N1[O] (stereo not shown) [Compound 11] | unexpectedly superior activity |  |  |  |  |  | 
2 | CC(=O)NC1C(OC2C(CO)OC(Oc3ccc4c(C)cc(=O)oc4c3)C(NC(C)=O)C2O)OC(CO)C(O)C1O (stereo not shown) [Compound 12] |  | potent inhibitor | better activity |  |  |  | broad spectrum antimicrobial activity against gram negative, gram positive bacteria and fungus [2]: broad spectrum antimicrobial activity; inhibition of biofilm formation by MSSA and MRSA [3]: unexpectedly inhibited biofilm formation
3 | COCC1OC(Oc2ccc([N+](=O)[O-])cc2)C(NC(C)=O)C(O)C1O (stereo not shown) [Compound 16] |  | potent inhibitor |  |  |  |  | 
4 | chitohepatose [Compound 2] | unexpectedly potent activity |  |  | Inhibits | unexpectedly potent activity | effectively reduced | potency relative to chitohexaose (Compound 1), percentage of inhibition of LPS mediated induction of inflammatory cytokines ([1]; 10 μM, human monocytes): more potent than chitohexaose; average size of CNV lesions, relative to control mice treated with vehicle only ([6]; 200 μg daily i.p. injection): about 60%; decrease of choroidal neovascularization ([6]; as worded in heading of Example 16): ~60%
5 | chitohexaose [Compound 1] |  |  | better activity | Inhibits |  | effectively reduced | protection from sepsis induced death (E. coli (ATCC-25922)): 40%
6 | chitooctaose [Compound 3] | unexpectedly potent activity |  |  |  | unexpectedly potent activity |  | 
